{
  "source": "patent US20190328691A1",
  "about": "“ANTIBIOTIC THERAPY” (Boulos & Cooper Pharmaceuticals Pty Ltd, priority 2015, published 2019)",
  "key": {"[1]": {"test_system": "Staphylococcus aureus (BAA-1717)", "test": "Checkerboard combination / MIC assay with S. aureus BAA-1717 (MRSA)", "format": "cell-based", "conditions": "for Effect of individual antibiotic combinations: S. aureus BAA-1717", "in_short": "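CLSI broth microdilution checkerboard in CAMHB (5×10^5 CFU/mL, 2% DMSO final). Ramizol or Chlopam was tested in 11-point two-fold series against 7-point antibiotic titrations, starting at 4× MIC.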"}, "MRSA strains": {"test_system": "MRSA strains", "conditions": "cited from earlier work"}, "[2]": {"test_system": "Staphylococcus aureus (ATCC 29213)", "test": "Checkerboard combination / MIC assay with S. aureus ATCC 29213", "format": "cell-based", "in_short": "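CLSI broth microdilution checkerboard in CAMHB, final inoculum 5×10^5 CFU/mL, 2% DMSO. Ramizol or Chlopam (11-point 2-fold) crossed with commercial antibiotics (7-point), each starting at 4× MIC; synergy assessed by FIC index (sum of MIC-in-combination/MIC-alone ratios; ≤0.5 synergy, >4 antagonism).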"}},
  "data": [
    {"smiles": "CN[C@H](CC(C)C)C(=O)N[C@H]1C(=O)N[C@@H](CC(N)=O)C(=O)N[C@H]2C(=O)N[C@H]3C(=O)N[C@H](C(=O)N[C@H](C(=O)O)c4cc(O)cc(O)c4-c4cc3ccc4O)[C@H](O)c3ccc(c(Cl)c3)Oc3cc2cc(c3O[C@@H]2O[C@H](CO)[C@@H](O)[C@H](O)[C@H]2O[C@H]2C[C@](C)(N)[C@H](O)[C@H](C)O2)Oc2ccc(cc2Cl)[C@H]1O", "note": "[Vancomycin]", "values": [
      {"measurement": "FICI of combination with Chlopam", "setting": "[1]; Chlopam 0.001953 μg/mL + labelled antibiotic at MIC of same cell, S. aureus ATCC BAA-1717", "value": 1.0},
      {"measurement": "MIC of antibiotic in combination with Chlopam", "setting": "[1]; Chlopam 0.001953 μg/mL, S. aureus ATCC BAA-1717", "value": 1, "unit": "µg/mL"},
      {"measurement": "FICI of combination with Chlopam", "setting": "[1]; Chlopam 0.003906 μg/mL + labelled antibiotic at MIC of same cell, S. aureus ATCC BAA-1717", "value": 1.0},
      {"measurement": "MIC of antibiotic in combination with Chlopam", "setting": "[1]; Chlopam 0.003906 μg/mL, S. aureus ATCC BAA-1717", "value": 1, "unit": "µg/mL"},
      {"measurement": "FICI of combination with Chlopam", "setting": "[1]; Chlopam 0.0078125 μg/mL + labelled antibiotic at MIC of same cell, S. aureus ATCC BAA-1717", "value": 1.0},
      {"measurement": "MIC of antibiotic in combination with Chlopam", "setting": "[1]; Chlopam 0.0078125 μg/mL, S. aureus ATCC BAA-1717", "value": 1, "unit": "µg/mL"},
      {"measurement": "FICI of combination with Chlopam", "setting": "[1]; Chlopam 0.015625 μg/mL + labelled antibiotic at MIC of same cell, S. aureus ATCC BAA-1717", "value": 1.0},
      {"measurement": "MIC of antibiotic in combination with Chlopam", "setting": "[1]; Chlopam 0.015625 μg/mL, S. aureus ATCC BAA-1717", "value": 1, "unit": "µg/mL"},
      {"measurement": "FICI of combination with Chlopam", "setting": "[1]; Chlopam 0.5 μg/mL + labelled antibiotic at MIC of same line, S. aureus ATCC BAA-1717", "value": 1.0},
      {"measurement": "MIC of antibiotic in combination with Chlopam", "setting": "[1]; Chlopam 0.5 μg/mL, S. aureus ATCC BAA-1717", "value": 0.031, "unit": "µg/mL"},
      {"measurement": "Effect of individual antibiotic combinations", "setting": "[1]; Chlopam and Vancomycin: 0.001953 and 1, 0.003901 and 1, 0.0078125 and 1, 0.015625 and 1 μg/mL", "value": "additive effect"},
      {"measurement": "FICI of combination with Ramizol", "setting": "[1]; Ramizol 0.015625 μg/mL + labelled antibiotic at MIC of same cell, S. aureus ATCC BAA-1717", "value": 1.0},
      {"measurement": "MIC of antibiotic in combination with Ramizol", "setting": "[1]; Ramizol 0.015625 μg/mL, S. aureus ATCC BAA-1717", "value": 1, "unit": "µg/mL"},
      {"measurement": "FICI of combination with Ramizol", "setting": "[1]; Ramizol 0.03125 μg/mL + labelled antibiotic at MIC of same cell, S. aureus ATCC BAA-1717", "value": 1.0},
      {"measurement": "MIC of antibiotic in combination with Ramizol", "setting": "[1]; Ramizol 0.03125 μg/mL, S. aureus ATCC BAA-1717", "value": 1, "unit": "µg/mL"},
      {"measurement": "FICI of combination with Ramizol", "setting": "[1]; Ramizol 0.0625 μg/mL + labelled antibiotic at MIC of same cell, S. aureus ATCC BAA-1717", "value": 1.0},
      {"measurement": "MIC of antibiotic in combination with Ramizol", "setting": "[1]; Ramizol 0.0625 μg/mL, S. aureus ATCC BAA-1717", "value": 1, "unit": "µg/mL"},
      {"measurement": "FICI of combination with Ramizol", "setting": "[1]; Ramizol 0.125 μg/mL + labelled antibiotic at MIC of same line, S. aureus ATCC BAA-1717", "value": 1.0},
      {"measurement": "MIC of antibiotic in combination with Ramizol", "setting": "[1]; Ramizol 0.125 μg/mL, S. aureus ATCC BAA-1717", "value": 1, "unit": "µg/mL"},
      {"measurement": "FICI of combination with Ramizol", "setting": "[1]; Ramizol 4 μg/mL + labelled antibiotic at MIC of same cell, S. aureus ATCC BAA-1717", "value": 1.0},
      {"measurement": "MIC of antibiotic in combination with Ramizol", "setting": "[1]; Ramizol 4 μg/mL, S. aureus ATCC BAA-1717", "value": 0.031, "unit": "µg/mL"},
      {"measurement": "Effect of individual antibiotic combinations", "setting": "[1]; Ramizol and Vancomycin: 0.015625 and 1, 0.03125 and 1, 0.0625 and 1, 0.125 and 1, 4 and 0.031 μg/mL", "value": "additive effect"},
      {"measurement": "MIC", "setting": "[1]; Staphylococcus aureus, ATCC BAA-1717 / BAA-1717, read-out: MIC of antibiotic alone", "value": 1, "unit": "µg/mL"},
      {"measurement": "MIC of antibiotic alone", "setting": "[1]; Table 7, checkerboard series with Ramizol, S. aureus ATCC BAA-1717", "value": 1, "unit": "µg/mL"},
      {"measurement": "mean FICI of combination with Chlopam", "setting": "[1]; labelled antibiotic + Chlopam, mean of all pairwise combinations, S. aureus ATCC BAA-1717", "value": 1.2},
      {"measurement": "mean FICI of combination with Ramizol", "setting": "[1]; labelled antibiotic + Ramizol, mean of all pairwise combinations, S. aureus ATCC BAA-1717", "value": 1.2},
      {"measurement": "MIC", "setting": "MRSA strains; MRSA strains fully resistant to vancomycin", "value": "≥ 32", "unit": "µg/mL"},
      {"measurement": "minimum inhibitory concentration [MIC]", "setting": "MRSA strains; MRSA strains with decreased susceptibility to vancomycin", "value": "4 to 8", "unit": "µg/mL"},
      {"measurement": "FICI of combination with Chlopam", "setting": "[2]; Chlopam 0.003906 μg/mL + labelled antibiotic at MIC of same cell, S. aureus ATCC 29213", "value": 1.0},
      {"measurement": "MIC of antibiotic in combination with Chlopam", "setting": "[2]; Chlopam 0.003906 μg/mL, S. aureus ATCC 29213", "value": 1, "unit": "µg/mL"},
      {"measurement": "FICI of combination with Chlopam", "setting": "[2]; Chlopam 0.0078125 μg/mL + labelled antibiotic at MIC of same cell, S. aureus ATCC 29213", "value": 1.0},
      {"measurement": "MIC of antibiotic in combination with Chlopam", "setting": "[2]; Chlopam 0.0078125 μg/mL, S. aureus ATCC 29213", "value": 1, "unit": "µg/mL"},
      {"measurement": "FICI of combination with Chlopam", "setting": "[2]; Chlopam 0.015625 μg/mL + labelled antibiotic at MIC of same cell, S. aureus ATCC 29213", "value": 1.0},
      {"measurement": "MIC of antibiotic in combination with Chlopam", "setting": "[2]; Chlopam 0.015625 μg/mL, S. aureus ATCC 29213", "value": 1, "unit": "µg/mL"},
      {"measurement": "FICI of combination with Chlopam", "setting": "[2]; Chlopam 0.125 μg/mL + labelled antibiotic at MIC of same line, S. aureus ATCC 29213", "value": 0.8},
      {"measurement": "MIC of antibiotic in combination with Chlopam", "setting": "[2]; Chlopam 0.125 μg/mL, S. aureus ATCC 29213", "value": 0.5, "unit": "µg/mL"},
      {"measurement": "FICI of combination with Chlopam", "setting": "[2]; Chlopam 0.25 μg/mL + labelled antibiotic at MIC of same cell, S. aureus ATCC 29213", "value": 1.0},
      {"measurement": "MIC of antibiotic in combination with Chlopam", "setting": "[2]; Chlopam 0.25 μg/mL, S. aureus ATCC 29213", "value": 0.5, "unit": "µg/mL"},
      {"measurement": "Effect of individual antibiotic combinations", "setting": "[2]; Chlopam and Vancomycin: 0.003901 and 1, 0.0078125 and 1, 0.015625 and 1, 0.125 and 0.5, 0.25 and 0.5 μg/mL, S. aureus ATCC 29213", "value": "additive effect"},
      {"measurement": "FICI of combination with Ramizol", "setting": "[2]; Ramizol 0.015625 μg/mL + labelled antibiotic at MIC of same cell, S. aureus ATCC 29213", "value": 1.0},
      {"measurement": "MIC of antibiotic in combination with Ramizol", "setting": "[2]; Ramizol 0.015625 μg/mL, S. aureus ATCC 29213", "value": 1, "unit": "µg/mL"},
      {"measurement": "FICI of combination with Ramizol", "setting": "[2]; Ramizol 0.03125 μg/mL + labelled antibiotic at MIC of same cell, S. aureus ATCC 29213", "value": 1.0},
      {"measurement": "MIC of antibiotic in combination with Ramizol", "setting": "[2]; Ramizol 0.03125 μg/mL, S. aureus ATCC 29213", "value": 1, "unit": "µg/mL"},
      {"measurement": "FICI of combination with Ramizol", "setting": "[2]; Ramizol 0.0625 μg/mL + labelled antibiotic at MIC of same cell, S. aureus ATCC 29213", "value": 1.0},
      {"measurement": "MIC of antibiotic in combination with Ramizol", "setting": "[2]; Ramizol 0.0625 μg/mL, S. aureus ATCC 29213", "value": 1, "unit": "µg/mL"},
      {"measurement": "FICI of combination with Ramizol", "setting": "[2]; Ramizol 0.125 μg/mL + labelled antibiotic at MIC of same cell, S. aureus ATCC 29213", "value": 1.0},
      {"measurement": "MIC of antibiotic in combination with Ramizol", "setting": "[2]; Ramizol 0.125 μg/mL, S. aureus ATCC 29213", "value": 1, "unit": "µg/mL"},
      {"measurement": "Effect of individual antibiotic combinations", "setting": "[2]; Ramizol and Vancomycin: 0.015625 and 1, 0.03125 and 1, 0.0625 and 1, 0.125 and 1 μg/mL, S. aureus ATCC 29213", "value": "additive effect"},
      {"measurement": "MIC", "setting": "[2]; Staphylococcus aureus, ATCC29213, read-out: MIC of antibiotic alone", "value": 1, "unit": "µg/mL"},
      {"measurement": "MIC of antibiotic alone", "setting": "[2]; Table 7, checkerboard series with Ramizol, S. aureus ATCC 29213", "value": 1, "unit": "µg/mL"},
      {"measurement": "Effect of the combinations with Chlopam (by mean FICI)", "setting": "[2]; labelled antibiotic + Chlopam, S. aureus ATCC 29213", "value": "additive effect"},
      {"measurement": "mean FICI of combination with Chlopam", "setting": "[2]; labelled antibiotic + Chlopam, mean of all pairwise combinations, S. aureus ATCC 29213", "value": 1.0},
      {"measurement": "mean FICI of combination with Ramizol", "setting": "[2]; labelled antibiotic + Ramizol, mean of all pairwise combinations, S. aureus ATCC 29213", "value": 1.2}
    ]}
  ]
}
